Measured values as given in the NIST ThermoML archive (doi:10.1021/je500275j).
± gives the expanded uncertainty stated by the source.

Test: xn = mol fraction of the nth substance listed
Details: 100 kPa, Liquid; for viscosity: Falling or rolling sphere viscometry; for mass density: Vibrating tube method

CCC1CCCCC1 [ethylcyclohexane] + C1CCC(C2CCCCC2)CC1
viscosity (293.15 K, x2 = 0): 0.851 ± 0.012 mPa·s | viscosity (293.15 K, x2 = 0.1001): 0.996 ± 0.012 mPa·s | viscosity (293.15 K, x2 = 0.2003): 1.164 ± 0.013 mPa·s | viscosity (293.15 K, x2 = 0.3001): 1.369 ± 0.014 mPa·s | viscosity (293.15 K, x2 = 0.4002): 1.621 ± 0.015 mPa·s | viscosity (293.15 K, x2 = 0.498): 1.848 ± 0.017 mPa·s | viscosity (293.15 K, x2 = 0.5996): 2.139 ± 0.019 mPa·s | viscosity (293.15 K, x2 = 0.6996): 2.451 ± 0.021 mPa·s | viscosity (293.15 K, x2 = 0.7983): 2.874 ± 0.024 mPa·s | viscosity (293.15 K, x2 = 0.901): 3.379 ± 0.027 mPa·s | mass density (293.15 K, x2 = 0): 788.23 ± 0.15 kg/m3 | mass density (293.15 K, x2 = 0.1001): 801.13 ± 0.15 kg/m3 | mass density (293.15 K, x2 = 0.2003): 813.19 ± 0.14 kg/m3 | mass density (293.15 K, x2 = 0.3001): 824.41 ± 0.14 kg/m3 | mass density (293.15 K, x2 = 0.4002): 835.03 ± 0.14 kg/m3 | mass density (293.15 K, x2 = 0.498): 844.69 ± 0.14 kg/m3 | mass density (293.15 K, x2 = 0.5996): 854.14 ± 0.14 kg/m3 | mass density (293.15 K, x2 = 0.6996): 862.93 ± 0.14 kg/m3 | mass density (293.15 K, x2 = 0.7983): 871.02 ± 0.14 kg/m3 | mass density (293.15 K, x2 = 0.901): 879.05 ± 0.14 kg/m3 | viscosity (298.15 K, x2 = 0): 0.796 ± 0.012 mPa·s | viscosity (298.15 K, x2 = 0.1001): 0.934 ± 0.012 mPa·s | viscosity (298.15 K, x2 = 0.2003): 1.079 ± 0.013 mPa·s | viscosity (298.15 K, x2 = 0.3001): 1.264 ± 0.014 mPa·s | viscosity (298.15 K, x2 = 0.4002): 1.488 ± 0.015 mPa·s | viscosity (298.15 K, x2 = 0.498): 1.685 ± 0.016 mPa·s | viscosity (298.15 K, x2 = 0.5996): 1.94 ± 0.017 mPa·s | viscosity (298.15 K, x2 = 0.6996): 2.21 ± 0.019 mPa·s | viscosity (298.15 K, x2 = 0.7983): 2.574 ± 0.022 mPa·s | viscosity (298.15 K, x2 = 0.901): 3.003 ± 0.025 mPa·s | mass density (298.15 K, x2 = 0): 784.2 ± 0.15 kg/m3 | mass density (298.15 K, x2 = 0.1001): 797.17 ± 0.15 kg/m3 | mass density (298.15 K, x2 = 0.2003): 809.29 ± 0.14 kg/m3 | mass density (298.15 K, x2 = 0.3001): 820.56 ± 0.14 kg/m3 | mass density (298.15 K, x2 = 0.4002): 831.23 ± 0.14 kg/m3 | mass density (298.15 K, x2 = 0.498): 840.93 ± 0.14 kg/m3 | mass density (298.15 K, x2 = 0.5996): 850.42 ± 0.14 kg/m3 | mass density (298.15 K, x2 = 0.6996): 859.24 ± 0.14 kg/m3 | mass density (298.15 K, x2 = 0.7983): 867.36 ± 0.14 kg/m3 | mass density (298.15 K, x2 = 0.901): 875.42 ± 0.14 kg/m3 | viscosity (303.15 K, x2 = 0): 0.748 ± 0.011 mPa·s | viscosity (303.15 K, x2 = 0.1001): 0.874 ± 0.012 mPa·s | viscosity (303.15 K, x2 = 0.2003): 1.004 ± 0.012 mPa·s | viscosity (303.15 K, x2 = 0.3001): 1.173 ± 0.013 mPa·s | viscosity (303.15 K, x2 = 0.4002): 1.372 ± 0.014 mPa·s | viscosity (303.15 K, x2 = 0.498): 1.547 ± 0.015 mPa·s | viscosity (303.15 K, x2 = 0.5996): 1.77 ± 0.016 mPa·s | viscosity (303.15 K, x2 = 0.6996): 2.005 ± 0.018 mPa·s | viscosity (303.15 K, x2 = 0.7983): 2.322 ± 0.02 mPa·s | viscosity (303.15 K, x2 = 0.901): 2.689 ± 0.022 mPa·s | mass density (303.15 K, x2 = 0): 780.16 ± 0.15 kg/m3 | mass density (303.15 K, x2 = 0.1001): 793.2 ± 0.15 kg/m3 | mass density (303.15 K, x2 = 0.2003): 805.38 ± 0.15 kg/m3 | mass density (303.15 K, x2 = 0.3001): 816.7 ± 0.14 kg/m3 | mass density (303.15 K, x2 = 0.4002): 827.42 ± 0.14 kg/m3 | mass density (303.15 K, x2 = 0.498): 837.16 ± 0.14 kg/m3 | mass density (303.15 K, x2 = 0.5996): 846.72 ± 0.14 kg/m3 | mass density (303.15 K, x2 = 0.6996): 855.55 ± 0.14 kg/m3 | mass density (303.15 K, x2 = 0.7983): 863.7 ± 0.14 kg/m3 | mass density (303.15 K, x2 = 0.901): 871.8 ± 0.15 kg/m3 | viscosity (308.15 K, x2 = 0): 0.704 ± 0.011 mPa·s | viscosity (308.15 K, x2 = 0.1001): 0.82 ± 0.012 mPa·s | viscosity (308.15 K, x2 = 0.2003): 0.938 ± 0.012 mPa·s | viscosity (308.15 K, x2 = 0.3001): 1.091 ± 0.013 mPa·s | viscosity (308.15 K, x2 = 0.4002): 1.258 ± 0.014 mPa·s | viscosity (308.15 K, x2 = 0.498): 1.428 ± 0.014 mPa·s | viscosity (308.15 K, x2 = 0.5996): 1.626 ± 0.016 mPa·s | viscosity (308.15 K, x2 = 0.6996): 1.828 ± 0.017 mPa·s | viscosity (308.15 K, x2 = 0.7983): 2.106 ± 0.019 mPa·s | viscosity (308.15 K, x2 = 0.901): 2.425 ± 0.021 mPa·s | mass density (308.15 K, x2 = 0): 776.11 ± 0.15 kg/m3 | mass density (308.15 K, x2 = 0.1001): 789.22 ± 0.15 kg/m3 | mass density (308.15 K, x2 = 0.2003): 801.46 ± 0.15 kg/m3 | mass density (308.15 K, x2 = 0.3001): 812.84 ± 0.14 kg/m3 | mass density (308.15 K, x2 = 0.4002): 823.6 ± 0.14 kg/m3 | mass density (308.15 K, x2 = 0.498): 833.39 ± 0.14 kg/m3 | mass density (308.15 K, x2 = 0.5996): 842.97 ± 0.14 kg/m3 | mass density (308.15 K, x2 = 0.6996): 851.86 ± 0.14 kg/m3 | mass density (308.15 K, x2 = 0.7983): 860.05 ± 0.14 kg/m3 | mass density (308.15 K, x2 = 0.901): 868.18 ± 0.15 kg/m3 | viscosity (313.15 K, x2 = 0): 0.665 ± 0.011 mPa·s | viscosity (313.15 K, x2 = 0.1001): 0.77 ± 0.011 mPa·s | viscosity (313.15 K, x2 = 0.2003): 0.879 ± 0.012 mPa·s | viscosity (313.15 K, x2 = 0.3001): 1.018 ± 0.012 mPa·s | viscosity (313.15 K, x2 = 0.4002): 1.175 ± 0.013 mPa·s | viscosity (313.15 K, x2 = 0.498): 1.32 ± 0.014 mPa·s | viscosity (313.15 K, x2 = 0.5996): 1.492 ± 0.015 mPa·s | viscosity (313.15 K, x2 = 0.6996): 1.675 ± 0.016 mPa·s | viscosity (313.15 K, x2 = 0.7983): 1.92 ± 0.017 mPa·s | viscosity (313.15 K, x2 = 0.901): 2.197 ± 0.019 mPa·s | mass density (313.15 K, x2 = 0): 772.04 ± 0.15 kg/m3 | mass density (313.15 K, x2 = 0.1001): 785.22 ± 0.15 kg/m3 | mass density (313.15 K, x2 = 0.2003): 797.53 ± 0.15 kg/m3 | mass density (313.15 K, x2 = 0.3001): 808.96 ± 0.15 kg/m3 | mass density (313.15 K, x2 = 0.4002): 819.79 ± 0.14 kg/m3 | mass density (313.15 K, x2 = 0.498): 829.62 ± 0.14 kg/m3 | mass density (313.15 K, x2 = 0.5996): 839.25 ± 0.14 kg/m3 | mass density (313.15 K, x2 = 0.6996): 848.18 ± 0.14 kg/m3 | mass density (313.15 K, x2 = 0.7983): 856.4 ± 0.14 kg/m3 | mass density (313.15 K, x2 = 0.901): 864.56 ± 0.15 kg/m3 | viscosity (318.15 K, x2 = 0): 0.629 ± 0.011 mPa·s | viscosity (318.15 K, x2 = 0.1001): 0.727 ± 0.011 mPa·s | viscosity (318.15 K, x2 = 0.2003): 0.825 ± 0.012 mPa·s | viscosity (318.15 K, x2 = 0.3001): 0.951 ± 0.012 mPa·s | viscosity (318.15 K, x2 = 0.4002): 1.094 ± 0.013 mPa·s | viscosity (318.15 K, x2 = 0.498): 1.225 ± 0.013 mPa·s | viscosity (318.15 K, x2 = 0.5996): 1.381 ± 0.014 mPa·s | viscosity (318.15 K, x2 = 0.6996): 1.542 ± 0.015 mPa·s | viscosity (318.15 K, x2 = 0.7983): 1.759 ± 0.016 mPa·s | viscosity (318.15 K, x2 = 0.901): 2.002 ± 0.018 mPa·s | mass density (318.15 K, x2 = 0): 767.96 ± 0.15 kg/m3 | mass density (318.15 K, x2 = 0.1001): 781.22 ± 0.15 kg/m3 | mass density (318.15 K, x2 = 0.2003): 793.59 ± 0.15 kg/m3 | mass density (318.15 K, x2 = 0.3001): 805.08 ± 0.15 kg/m3 | mass density (318.15 K, x2 = 0.4002): 815.96 ± 0.15 kg/m3 | mass density (318.15 K, x2 = 0.498): 825.85 ± 0.14 kg/m3 | mass density (318.15 K, x2 = 0.5996): 835.52 ± 0.14 kg/m3 | mass density (318.15 K, x2 = 0.6996): 844.5 ± 0.14 kg/m3 | mass density (318.15 K, x2 = 0.7983): 852.76 ± 0.15 kg/m3 | mass density (318.15 K, x2 = 0.901): 860.95 ± 0.15 kg/m3
